Test results published in PMC9830863, “Aspergillus Niger thermostable Cytosine deaminase-dextran conjugates with enhanced structure stability, proteolytic resistance, and Antiproliferative activity” (BMC Microbiology, 2023).
Read-outs that look alike come from different tables or passages of the source.

Assays:
Cytosine deaminase (CDA) [1] = settings: read-out: Free CDA / Km; free enzyme; Tris-HCl 50 mM pH 7.0, 37 °C
Source text: deamination, released 5-fluorouracil on Cytosine deaminase (CDA)

Cytosine deaminase (CDA) [2] = settings: read-out: Free CDA / Km; free enzyme; Tris-HCl 50 mM pH 7.0, 37 °C; remark: listed apart in the source

Km (Cytosine deaminase (CDA) [1])	Km (Cytosine deaminase (CDA) [2])	Compound
220 µM	–	Nc1nc(=O)[nH]cc1F [5-fluorocytosine]
–	360 µM	Nc1cc[nH]c(=O)n1 [Cytosine]
